Source: EP0162494A1, “Process for the preparation of a 3-hydroxy-2,3-dihydrobenzisothiazole 1,1-dioxide and the use of this compound as a biocide and for preparing an ortho-sulphobenzimide” (AKZO N.V., priority 1984, dated 1985)
Values after ≈ are worked out from the molar mass of the structure shown.

Key:
Pellicularia sasaki = test: MIC, modified DGHM dilution method; format: cell-based; details: A.C. = active compound
[1] = Acute oral toxicity in rats; format: in vivo; details: for LD50 at 24 h / LD50 at 48 h / LD50 at 336 h: rat, in vivo, po; for LD50 at 24 h: after 24 hours; for LD50 at 48 h: after 48 hours; for LD50 at 336 h: after 14 days
gram positive bacteria = test: MIC, DGHM dilution test method, by type of microorganism; format: cell-based; details: read-out: minimum growth inhibiting concentration (MIC value)
Procedure: (§1) The minimum growth inhibiting concentration (MIC value) of 3-hydroxy-2,3-dihydrobenzisothiazole-1,1-dioxide for the different types of microorganisms was determined in conformity with the dilution test method of the "Deutsche Gesellschaft fUr Hygiene und Mikrobiologie" (DGHM) and are: […]

fungi = test: as above; format: cell-based; details: read-out: minimum growth inhibiting concentration (MIC value)
Procedure: as §1

yeasts = test: as above; format: cell-based; details: read-out: minimum growth inhibiting concentration (MIC value)
Procedure: as §1

gram negative bacteria = test: as above; format: cell-based; details: read-out: minimum growth inhibiting concentration (MIC value)
Procedure: as §1

Trichoderma viride = test: MIC, modified DGHM dilution method; format: cell-based; details: A.C. = active compound
Escherichia coli = test: MIC, modified DGHM dilution method; format: cell-based; details: A.C. = active compound
Pyricularia oryzae = test: microbe, parasite or virus in culture; format: cell-based; details: read-out: MIC-values
[2] = test system: sulfphate reducing bacteria; test: Bacteriostatic activity towards sulphate reducing bacteria; format: cell-based; details: result in words
Streptococcus faecalis = test: MIC, modified DGHM dilution method; format: cell-based; details: Enterococcus faecalis, A.C. = active compound
Staphylococcus aureus = test: MIC, modified DGHM dilution method; format: cell-based; details: A.C. = active compound
Aspergillus niger = test: MIC, modified DGHM dilution method; format: cell-based; details: A.C. = active compound
Chaetomium globosum = test: MIC, modified DGHM dilution method; format: cell-based; details: A.C. = active compound
Candida albicans = test: MIC, modified DGHM dilution method; format: cell-based; details: A.C. = active compound
Saccharomyces cerevisiae = test: MIC, modified DGHM dilution method; format: cell-based; details: A.C. = active compound
certain bacteria = test: Synergy with quaternary ammonium compounds; format: cell-based; details: in combination with some quaternary ammonium compounds such as dimethylbenzyl coco-ammonium chloride or didecyldimethyl ammonium chloride
Proteus mirabilis = test: MIC, modified DGHM dilution method; format: cell-based; details: A.C. = active compound
Pseudomonas aeruginosa = test: MIC, modified DGHM dilution method; format: cell-based; details: A.C. = active compound
Paecillomyces varioti = test: MIC, modified DGHM dilution method; format: cell-based; details: A.C. = active compound

Structure (SMILES)	MIC (Pellicularia sasaki)	MIC (Trichoderma viride)	MIC (Escherichia coli)	MIC (Pyricularia oryzae)	MIC (Streptococcus faecalis)	MIC (Staphylococcus aureus)	MIC (Aspergillus niger)	MIC (Chaetomium globosum)	MIC (Candida albicans)	MIC (Saccharomyces cerevisiae)	MIC (Proteus mirabilis)	MIC (Pseudomonas aeruginosa)	MIC (Paecillomyces varioti)	other results
O=S1(=O)NC(O)c2ccccc21 (stereo not drawn) [3-hydroxy-2,3-dihydrobenzisothiazole-1,1-dioxide]	150 µg/mL (≈ 0.81 mM)	75 to 150 µg/mL (≈ 0.405 to 0.81 mM)	600 to 1200 µg/mL (≈ 3.24 to 6.48 mM)	150 to 200 µg/mL (≈ 0.81 to 1.08 mM)	600 to 1200 µg/mL (≈ 3.24 to 6.48 mM)	600 to 1200 µg/mL (≈ 3.24 to 6.48 mM)	75 to 150 µg/mL (≈ 0.405 to 0.81 mM)	37.5 to 75 µg/mL (≈ 0.202 to 0.405 mM)	600 to 1200 µg/mL (≈ 3.24 to 6.48 mM)	300 to 600 µg/mL (≈ 1.62 to 3.24 mM)	600 to 1200 µg/mL (≈ 3.24 to 6.48 mM)	1200 µg/mL (≈ 6.48 mM)	18.8 to 37.5 µg/mL (≈ 0.102 to 0.202 mM)	LD50 at 24 h ([1]; ♀ rats): 860 mg/kg; LD50 at 48 h ([1]; ♀ rats): 860 mg/kg; LD50 at 336 h ([1]; ♀ rats): 860 mg/kg; LD50 at 24 h ([1]; ♂ + ♀ rats): 1070 mg/kg; LD50 at 48 h ([1]; ♂ + ♀ rats): 1020 mg/kg; LD50 at 336 h ([1]; ♂ + ♀ rats): 1020 mg/kg; LD50 at 24 h ([1]; ♂ rats): 1380 mg/kg; LD50 at 48 h ([1]; ♂ rats): 1220 mg/kg; LD50 at 336 h ([1]; ♂ rats): 1220 mg/kg; oral toxicity ([1]; result in words): low oral toxicity; MIC (gram positive bacteria): 600 to 1200 µg/mL (≈ 3.24 to 6.48 mM); MIC (fungi): 37.5 to 600 µg/mL (≈ 0.202 to 3.24 mM); MIC (yeasts): 300 to 1200 µg/mL (≈ 1.62 to 6.48 mM); MIC (gram negative bacteria): 600 to 2400 µg/mL (≈ 3.24 to 13 mM); bacteriostatic activity [2]: remarkable bacteriostatic activity; effect in combination (certain bacteria): synergistic effect
COC1=NS(=O)(=O)c2ccccc21 [3-methoxy-1,2-benzisothiazole-1,1-dioxide, reference compound]	600 to 1200 µg/mL (≈ 3.04 to 6.08 mM)	> 1200 µg/mL	1200 µg/mL (≈ 6.08 mM)	> 1200 µg/mL	> 1200 µg/mL	> 1200 µg/mL	> 1200 µg/mL	> 1200 µg/mL	> 1200 µg/mL	> 1200 µg/mL	600 to 1200 µg/mL (≈ 3.04 to 6.08 mM)	> 1200 µg/mL	600 to 1200 µg/mL (≈ 3.04 to 6.08 mM)	
